Marks after values point to notes of the source that are not given here.
What follows are compounds tested against T1, human GPR119 receptor (Homo sapiens, UniProt Q8TDV5, S329A/T327A) (assay: cAMP assay (LANCE cAMP-384 Kit), cAMP accumulation in HEK293 cells stably expressing mutant human GPR119 receptor). Settings: cAMP accumulation; HEK293 cells stably expressing a mutant form of the human GPR119 receptor; 20 min at 37° C.
T1 construct: N-terminal leader […]; expressed in transfected cells
T1 sequence (Q8TDV5 with tags, fused parts or gaps T327A/S329A): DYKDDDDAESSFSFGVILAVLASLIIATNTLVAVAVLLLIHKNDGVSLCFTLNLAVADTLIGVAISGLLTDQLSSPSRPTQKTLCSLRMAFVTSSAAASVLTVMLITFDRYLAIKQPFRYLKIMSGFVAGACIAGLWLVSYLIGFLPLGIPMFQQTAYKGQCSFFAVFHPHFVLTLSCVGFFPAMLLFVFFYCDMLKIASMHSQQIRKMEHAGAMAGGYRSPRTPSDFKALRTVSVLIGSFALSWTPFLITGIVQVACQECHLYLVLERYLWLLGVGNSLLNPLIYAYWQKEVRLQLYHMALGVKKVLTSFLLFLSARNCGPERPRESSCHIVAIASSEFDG
Assay type: cell-based
Description: Quantitative detection of cAMP accumulation from cells expressing human GPR119 receptor was achieved using Perkin Elmer's LANCE cAMP-384 Kit (Cat#AD0264) according to the manufacturer's protocol. Briefly, HEK293 cells stably expressing a mutant form of the human GPR119 receptor (Methionine 1 replaced with the amino acid sequence […], and T327 & S329 changed to alanines) were grown to 50-70% confluency in cell culture media (DMEM, 10% heat inactivated Fetal Bovine Serum, 50 I.U./mL penicillin, 50 μg/mL streptomycin, 10 mM HEPES, 20 μg/mL G418 Sulfate). On the day of the assay, GPR119 stable HEK293 cells were lifted from the tissue culture plate and 1000 cells/well were incubated along with various concentrations of test compounds for 20 min at 37° C. Detection Buffer (50 mM HEPES, 10 mM calcium chloride, 0.35% Triton X-100, 1 mg/mL BSA) containing cAMP-specific antibody was then added to all wells and allowed to equilibrate in the dark for 10 minutes at room temperature. Upon equilibration, Detection Buffer containing europium-labeled cAMP tracer complex was added to all wells and allowed to react for 1 hour at room temperature. After 1 hour, bound europium-labeled cAMP tracer was measured using a Perkin Elmer ViewLux. The quantity of cAMP generated in each well was derived from a standard curve.
For some compounds for which no EC50 value could be determined, the efficacy is provided at a single concentration (10 μM) yielding % stimulation values.

Compound	EC50 [nM]
CC(C)OC(=O)N1CCC(Oc2cc(N3CCc4cc(S(C)(=O)=O)ccc43)ncn2)CC1 [Compound 4-1, 4-[6-(5-Methanesulfonyl-2,3-dihydro-indol-1-yl)-pyrimidin-4-yloxy]-piperidine-1-carboxylic acid isopropyl ester]	33
CC(C)COC(=O)N1CCC(Oc2cc(N3CCc4cc(S(C)(=O)=O)ccc43)ncn2)CC1 [Compound 4-2]	42
CS(=O)(=O)c1ccc2c(c1)CCN2c1cc(OC2CCN(C(=O)OC3CCC3)CC2)ncn1 [Compound 5-1, 4-[6-(5-Methanesulfonyl-2,3-dihydro-indol-1-yl)-pyrimidin-4-yloxy]-piperidine-1-carboxylic acid cyclobutyl ester]	24
CS(=O)(=O)c1ccc2c(c1)CCN2c1cc(OC2CCN(C(=O)OCC3CC3)CC2)ncn1 [Compound 5-2]	23
CCC(C)OC(=O)N1CCC(Oc2cc(N3CCc4cc(S(C)(=O)=O)ccc43)ncn2)CC1 (stereo not shown) [Compound 5-3]	35
COCC(C)OC(=O)N1CCC(Oc2cc(N3CCc4cc(S(C)(=O)=O)ccc43)ncn2)CC1 (stereo not shown) [Compound 5-4]	100
CS(=O)(=O)c1ccc2c(c1)CCN2c1cc(OC2CCN(C(=O)OC(CF)CF)CC2)ncn1 [Compound 5-5]	242
CC(C)OC(=O)N1CCC(Nc2cc(N3CCc4cc(S(C)(=O)=O)ccc43)ncn2)CC1 [Compound 6-1, 4-[6-(5-Methanesulfonyl-2,3-dihydro-indol-1-yl)-pyrimidin-4-ylamino]-piperidine-1-carboxylic acid isopropyl ester]	611
CC(C)OC(=O)N1CCC(N(C)c2cc(N3CCc4cc(S(C)(=O)=O)ccc43)ncn2)CC1 [Compound 7-1, 4-[6-(5-Methanesulfonyl-2,3-dihydro-indol-1-yl)-pyrimidin-4-yl-methylamino]-piperidine-1-carboxylic acid isopropyl ester]	69
COc1c(OC2CCN(C(=O)OC(C)C)CC2)ncnc1N1CCc2cc(S(C)(=O)=O)ccc21 [Compound 8-1, 4-[6-(5-Methanesulfonyl-2,3-dihydro-indol-1-yl)-5-methoxy-pyrimidin-4-yloxy]-piperidine-1-carboxylic acid isopropyl ester]	201
Cc1c(OC2CCN(C(=O)OC(C)C)CC2)ncnc1N1CCc2ncccc21 [Compound 9-2, 4-[6-(2,3-Dihydro-pyrrolo[3,2-b]pyridin-1-yl)-5-methyl-pyrimidin-4-yloxy]-piperidine-1-carboxylic acid isopropyl ester]	312
CC(C)OC(=O)N1CCC(Oc2ccnc(N3CCc4cc(S(C)(=O)=O)ccc43)c2)CC1 [Compound 10-1, 4-[2-(5-Methanesulfonyl-2,3-dihydro-indol-1-yl)-pyridin-4-yloxy]-piperidine-1-carboxylic acid isopropyl ester]	588
CC(C)(C)OC(=O)N1CCC(Oc2ncnc(N3CCc4cc(S(C)(=O)=O)ccc43)c2F)CC1 [Compound 13-1, 4-[5-Fluoro-6-(5-methanesulfonyl-2,3-dihydro-indol-1-yl)-pyrimidin-4-yloxy]-piperidine-1-carboxylic acid tert-butyl ester]	382
CN(c1cc(N2CCc3cc(S(C)(=O)=O)ccc32)ncn1)C1CCN(C(=O)OC(C)(C)C)CC1 [Compound 16-1, 4-{[6-(5-Methanesulfonyl-2,3-dihydro-indol-1-yl)-pyrimidin-4-yl]-methyl-amino}-piperidine-1-carboxylic acid tert-butyl ester]	51
CCN(c1cc(N2CCc3cc(S(C)(=O)=O)ccc32)ncn1)C1CCN(C(=O)OC(C)(C)C)CC1 [Compound 16-2]	29
COCN(c1cc(N2CCc3cc(S(C)(=O)=O)ccc32)ncn1)C1CCN(C(=O)OC(C)(C)C)CC1 [Compound 16-3]	906
CCC(C)N(c1cc(N2CCc3cc(S(C)(=O)=O)ccc32)ncn1)C1CCN(C(=O)OC(C)(C)C)CC1 (stereo not shown) [Compound 16-4]	95
C=CCN(c1cc(N2CCc3cc(S(C)(=O)=O)ccc32)ncn1)C1CCN(C(=O)OC(C)(C)C)CC1 [Compound 16-5]	23
CC(C)(C)OC(=O)N1CCC(Oc2cc(N3CCc4nc(Cl)ccc43)ncn2)CC1 [Compound 20-1, 4-[6-(5-Chloro-2,3-dihydro-pyrrolo[3,2-b]pyridin-1-yl)-pyrimidin-4-yloxy]-piperidine-1-carboxylic acid tert-butyl ester]	751
CS(=O)(=O)c1ccc2c(c1)CCN2c1cc(OC2CCN(C(=O)OC3CCN(Cc4cccc(F)c4)C3)CC2)ncn1 (stereo not shown) [Compound 21-2]	278
CS(=O)(=O)c1ccc2c(c1)CCN2c1cc(OC2CCN(C(=O)OC3CCN(Cc4ccc(F)cc4)C3)CC2)ncn1 (stereo not shown) [Compound 21-3]	335
CS(=O)(=O)c1ccc2c(c1)CCN2c1cc(OC2CCN(C(=O)OC3CCN(Cc4cccc(F)c4F)C3)CC2)ncn1 (stereo not shown) [Compound 21-4]	343
CS(=O)(=O)c1ccc2c(c1)CCN2c1cc(OC2CCN(C(=O)OC3CCN(Cc4cc(F)cc(F)c4)C3)CC2)ncn1 (stereo not shown) [Compound 21-5]	308

Same assay, conditions: single concentration 10 μM; given where no EC50 value could be determined; HEK293 cells expressing mutant human GPR119

Compound	% stimulation at 10 μM
CC(C)(C)OC(=O)N1CC(Oc2cc(N3CCc4cc(S(C)(=O)=O)ccc43)ncn2)C1 [Compound 15-1, 3-[6-(5-Methanesulfonyl-2,3-dihydro-indol-1-yl)-pyrimidin-4-yloxy]-azetidine-1-carboxylic acid tert-butyl ester]	22%
CC(C)(C)OC(=O)N1CC[C@@H](Oc2cc(N3CCc4cc(S(C)(=O)=O)ccc43)ncn2)C1 [Compound 15-2, (R)-3-[6-(5-Methanesulfonyl-2,3-dihydro-indol-1-yl)-pyrimidin-4-yloxy]-pyrrolidine-1-carboxylic acid tert-butyl ester]	26%
CS(=O)(=O)c1ccc2c(c1)CCN2c1cc(OC2CCN(C(=O)OC3CCN(Cc4ccccc4F)C3)CC2)ncn1 (stereo not shown) [Compound 21-1, 4-[6-(5-Methanesulfonyl-2,3-dihydro-indol-1-yl)-pyrimidin-4-yloxy]-piperidine-1-carboxylic acid 1-(2-fluoro-benzyl)-pyrrolidin-3-yl ester]	78%*
CS(=O)(=O)c1ccc2c(c1)CCN2c1cc(OC2CCN(C(=O)OC3CCN(Cc4c(F)cccc4F)C3)CC2)ncn1 (stereo not shown) [Compound 21-6]	84%*
CC(C)OC(=O)N1CCC(Oc2cc(N3CCc4cc(S(C)(=O)=O)ccc43)ncc2C#N)CC1 [Compound 24-1, 4-[5-Cyano-2-(5-methanesulfonyl-2,3-dihydro-indol-1-yl)-pyridin-4-yloxy]-piperidine-1-carboxylic acid isopropyl ester]	54%

— patent US8481731B2, “Compounds, pharmaceutical composition and methods relating thereto” (Boehringer Ingelheim International GmbH, priority 2009, dated 2013)
